# Measurements from US12344879B2, “Transgenic bacteria with expanded amino acid usage and nucleic acid molecules for use in the same” (BOARD OF REGENTS, THE UNIVERSITY OF TEXAS SYSTEM, priority 2015, dated 2025).
# Values joined by “and” are separate entries in the source; they are usually repeats but may differ in a detail not shown here. Identical values can stand only once.
# What was measured:
# [1] = test system: E. coli formate dehydrogenase H (FdhH); assay: Benzyl viologen assay; format: cell-based, E. coli DHΔabcF; details: FdhH U140TAG or U140S reporter, co-expressed with SelA, anaerobic
# Protocol: The tRNA^Sec variant containing the G7-C66:U49-G65:C50-U64 (SEQ ID NO: 18) antideterminant sequence was designated tRNA^SecUx and was compared with the previously designed chimera (tRNA^UTu) and with a tRNA^Sec derivative designed to have an antideterminant region that should tightly bind EF-Tu (tRNA^UG; FIG. 2a). […] The hybrid tRNA^UTu incorporated selenocysteine and could grow on 75 μg·ml^−1. […] To further confirm tRNA^SecUx incorporated selenocysteine in response to amber stop codons, a standard colorimetric assay was employed based on the activity of the endogenous E. coli selenoprotein formate dehydrogenase H (FdhH) (FIG. 2b).
# E. coli DH10B cells containing pRSFDuet-1 and pcat-pheS were used as a positive control. DHΔabcF cells harboring p15A-fdhF U140S and pRSF-UX-eSelA, and p15A-fdhF U140X and pRSF-UX-ΔSelA were used as controls for selenocysteine dependent formate dehydrogenase activity. Transformants were grown overnight at 37° C. in LB medium supplemented with 12.5 μg·mL^−1 tetracycline and 50 μg·mL^−1 kanamycin. Overnight cultures were diluted 1/20 in a final volume of 2 ml and incubated for three hours. Cultures were normalized to OD600=0.5 and 5 μl aliquots were dotted on LB agar plates containing 3.75 μg·mL^−1 tetracycline, 12.5 μg·mL^−1 kanamycin, 5 mM sodium formate, 10 μM Na2MoO4, 1 μM Na2SeO3 and 20 μg·mL^−1 L-cysteine. Plates were incubated at 37° C. for 3 h under aerobic conditions and then transferred to anaerobic conditions at 37° C. for 60 h. Upon removal from the anaerobic chamber, plates were immediately overlaid with agar containing 1 mg·mL^−1 benzyl viologen, 250 mM sodium formate and 25 mM KH2PO4 at pH 7.0. Plates were photographed within 1 h of overlaying.
# [2] = test system: E. coli dihydrofolate reductase (DHFR) position 39; assay: Selenocysteine incorporation into DHFR P39X by intact mass spectrometry; design: species or system E. coli RTΔA.2; details: for serine incorporation in DHFR: mass spectrometry; for selenocysteine incorporation efficiency in DHFR: peak areas of the mass spectrum
# Source text: To further enhance the efficiency of selenocysteine incorporation, a number of steps were taken to improve the levels of Sec-tRNA^Sec relative to Ser-tRNA^Sec, including increasing the level of SelA, decreasing the gene dose of tRNA^SecUx, and co-expressing a phosphoseryl-tRNA^Sec kinase (see Example 2 below). […] In order to further validate selenocysteine incorporation, the Pseudomonas aeruginosa metalloprotein azurin was also expressed with its essential cysteine (C112) replaced by selenocysteine and the human selenoprotein cellular glutathione peroxidase (GPx-1) (FIGS. 6a-6e and 8a-8b). For azurin, this chemical change had previously proven possible only through expressed protein ligation,^22 the essential cysteine could now be biologically replaced with selenocysteine with good efficiency as measured by mass spectrometry of the intact protein.
# RTΔA.2 transformants containing pDHFR-P39X-AU and pRSF-eSelAK were cultured ON in LB medium containing 100 μg·mL^−1 ampicillin, 50 μg·mL^−1 kanamycin and 1 μM Na2SeO3. Overnight cultures were diluted 1/500 in a final volume of 2 L LB medium containing 50 μg·mL^−1 ampicillin, 25 μg·mL^−1 kanamycin and 5 μM Na2SeO3 and incubated with agitation for 24 hours at 37° C. Cells were harvested by centrifugation at 8000×g for 10 min and resuspended in 20 mL of wash buffer (100 mM Tris, 150 mM NaCl, 1 mM EDTA at pH 8.0) with protease inhibitor cocktail (cOmplete, mini EDTA free, Roche) and lysozyme at 1 mg·mL^−1. Following a 20 min incubation at 4° C. cells were lysed by sonication (Model 500, Fisher Scientific) and clarified by three times by centrifugation at 35000×g for 30 min. Lysate was passed through a 0.2 µm filter and seleno-DHFR recovered using Strep-Tactin affinity chromatography following the manufacturer's instructions (GE Healthcare). Eluate was concentrated to 3 mL and dialyzed against 50 mM NH4Ac pH 6.5 prior to the isolation of seleno-DHFR by size exclusion FPLC (ÄKTA, GE Healthcare). Seleno-DHFR was produced using tRNA^SecUx with a yield of 68 μg·L^−1 and 100% incorporation efficiency. Seleno-DHFR was produced using tRNA^UTu with a yield of 131 μg·L^−1 and 38.1% incorporation efficiency. DHFR containing serine at position 39 was produced with a yield of 225 μg·L^−1.
# Intact protein samples were analyzed using methods described previously (Ellefson et al., 2014). Azurin, DHFR and GPx-1 samples were buffer exchanged into LC-MS grade water using 10 kDa molecular weight cutoff filters. […] UVPD mass spectra were also deconvoluted using Xtract and then analyzed using ProsightPC 3.0. […] Incorporation efficiencies were calculated by dividing the area of the modified protein peak by the summed areas of the unmodified protein peak and the modified protein peak. […]
Substance,FdhH activity (reduction of benzyl viologen) [1],serine incorporation in DHFR [2],selenocysteine incorporation efficiency in DHFR [2]
tRNA^UTu (GGAAGATGTGGCCGAGCGGTTGAAGGCACCGGT; expressed or natural sequence),produced active FdhH,62%,38% and 38.1%
tRNA^SecUx: Evolved E. coli tRNA^Sec variant with the G7-C66:U49-G65:C50-U64 antideterminant sequence and CUA anticodon,produced active FdhH,no detectable background,~100%
